Here are results for 1 compound from US10456381B2, “Compositions and methods for treating plasma cell disorders and B-cell prolymphocytic disorders” (Knopp Biosciences LLC, priority 2013, dated 2019).

Like-named read-outs stand apart in the source and are kept apart here.

Series [1] has as its system eosinophils. The following applies: for decline in mean serum eosinophils from baseline to week 12: 12 weeks, Part 1; for mean eosinophils at week 16 recovered to % of baseline levels: after one-month washout. Here is the method: The Phase 2 trial was a two-part, double-blind study that evaluated the safety, tolerability, and clinical effects of dexpramipexole in ALS patients.
In Part 1, subjects were randomized to placebo (n=27), 50 mg/day (n=23), 150 mg/day (n=26), or 300 mg/day dexpramipexole (n=26) for 12 weeks.

A further series has as its system basophils. Conditions: 300 mg daily. Here is the method:
(§1) The phase 3 clinical trial was a double-blind study of dexpramipexole in ALS patients randomized 1:1 to placebo or dexpramipexole 300 mg daily treatment. Hematology parameters were collected as part of routine safety monitoring. Eosinophil and basophil counts were retrospectively analyzed by visit.
Changes in basophil counts were also analyzed in the Phase 3 trial.

Series [2] deals with eosinophils. Here is the method: In a 39-week repeat-dose toxicology study, minipigs were dosed at 0, 7.5, 25, and 75 mg/kg dexpramipexole by daily oral gavage through Study Day 45 and at 0, 7.5, 25, and 50 mg/kg dexpramipexole from Study Day 46 to study completion.
The conditions of series [3]: exposures up to 18 months.
In another series the test system is bone marrow cells. The following applies: 30 mg/kg or 100 mg/kg daily gavage, 70 days, vs vehicle control. Here is the method: The study consisted of 3 groups of BALB/cByJ mice (10 mice per group). Mice received daily gavage treatments of either 30 mg/kg, 100 mg/kg of dexpramipexole or vehicle control for 70 days. Bone marrow was processed into single cell suspensions and cells were stained with fluorescent conjugate antibodies to analyze the developmental stages of cells by flow cytometry. […] The columns depict the mean for each group and the error bar indicates the standard error of the mean.

In series [4] the test system is myeloid and lymphoid cell types, red blood cells, platelets. Conditions: 300 mg daily, month 6. Here is the method:
Hematological parameters were measured in a Phase 3 study of dexpramipexole in ALS. Because of the high rate of mortality among ALS patients, including subjects in the Phase 3 trial, hematology parameters obtained at the month 6 visit were chosen for analysis to remove the effect of study dropouts in later months.

Series [5] concerns eosinophils. Here is the method: as §1
Eosinophil levels were summarized over available time points and analyzed by ANOVA testing the effect of treatment vs. placebo on mean changes in serum eosinophil counts from baseline. Subjects with baseline eosinophils from 0 to 0.02×10^9/L (constituting less than 2% of all subjects analyzed) were censored from the primary analysis because of the inherent limitation to observe a decline from baseline.
Statistical analysis of the change from baseline was performed at month 6 to remove the effect of study dropouts in later months.
This is another data set of the same source.

Take `CCCN[C@@H]1CCc2nc(N)sc2C1` [dexpramipexole, (6R)-2-amino-4,5,6,7-tetrahydro-6-(propylamino) benzothiazole]: the “decline in mean serum eosinophils from baseline to week 12” value in the series on eosinophils [1] (50 mg/day) was determined as 18.2%; in the series with eosinophils [1] (150 mg/day), 69.9%; in the series with eosinophils [1] (300 mg/day), 42.9%. Moreover, the “mean eosinophils at week 16 recovered to % of baseline levels” value in the series with eosinophils [1] (150 mg/day group) was 47 % of baseline levels; in the series with eosinophils [1] (300 mg/day group) it was 73 % of baseline levels. Besides, the “decrease in eosinophil counts” value with eosinophils [1] (ALS subjects receiving dexpramipexole, Phase 2) was “dose- and time-dependent decrease”. The “decline in eosinophils from week 16 to week 40” value in the series with eosinophils [1] (Part 2, 25 mg twice daily) was determined as 17.6%; in the series on eosinophils [1] (Part 2, 150 mg twice daily) it was 78.9%. Besides, the “eosinophil counts in one subject with hypereosinophilia at Part 2 baseline” value in the series on eosinophils [1] (one Phase 2 subject, persisted through month 12) is reported as “decrease in eosinophil counts”. The “time at which basophil count decline reached plateau” value in the series with basophils (remained reduced through month 12) was about 4 month. In addition, the “mean basophil counts reduced from baseline” value in the series on basophils (six month analysis) was 45.5%. For the same compound, the “safety assessment of eosinophil differences” value in the series with eosinophils [2] (minipig, in vivo) is recorded as “not considered adverse”. Moreover, in the series with eosinophils [2] (minipigs, 7.5, 25 and 75/50 mg/kg daily oral gavage, 39 weeks), the reduction in eosinophils entry was “dose- and time-dependent reduction”. Besides, the tolerability in humans result in series [3] is “well-tolerated”. Further, in the series on bone marrow cells, the “Siglec-F^lo IL5Rα^hi positive cells (developing B cells, basophils and other cell populations) in bone marrow” value is recorded as “lowered”. The “number of Scal^+ c-Kit^+ lineage negative cells (multipotent hematopoietic stem cells) in bone marrow” value with bone marrow cells is reported as “lowered”. Further, the “all myeloid and lymphoid cell types measured, change from baseline” value in series [4] is listed as “statistically significant mean reductions”. In addition, in the series with eosinophils [5] (300 mg daily, after 6 months of treatment), the “subjects experiencing a 50% or greater decline in eosinophil count” value is recorded as 77.5 % of subjects. The “peripheral blood eosinophil count” value in the series with eosinophils [5] (300 mg daily, after 8-12 weeks of treatment) is given as “profound decrease”. In addition, the “mean eosinophil counts reduced from baseline” value in the series with eosinophils [5] (300 mg daily, month 6) amounted to 68.4%. Also, in the series on eosinophils [5] (300 mg daily, n=42, after 6 months of treatment), the “decrease in eosinophil count in subjects with higher eosinophil counts (>0.25×10^9/L)” value was 75%. In addition, the “time at which eosinophil-lowering effect reached plateau” value with eosinophils [5] (300 mg daily, persisted through month 12) is given as about 4 month. Moreover, the “eosinophil counts in subject with highest baseline eosinophil count” value with eosinophils [5] (one Phase 3 subject, persisted through month 12) is on record as “decrease in eosinophil counts”.
